Each structure is given as a SMILES string.

This experiment deals with Chymotrypsin A (Bos taurus). The experiment can be described thus: In vitro inhibitory activity was determined against bovine pancreas chymotrypsin.
Compound `Cc1cccc(-c2ncc(N)c(=O)n2CC(=O)NC(Cc2ccccc2)C(=O)C(F)(F)C(=O)NCCC(=O)O)c1` (centres undefined) [3-{4-[2-(5-Amino-6-oxo-2-m-tolyl-6H-pyrimidin-1-yl)-acetylamino]-2,2-difluoro-3-oxo-5-phenyl-pentanoylamino}-propionic acid] came in with a Ki of 1.43 µM.
In the case of `Cc1cccc(-c2ncc(N)c(=O)n2CC(=O)NC(Cc2ccccc2)C(=O)C(F)(F)C(=O)NCc2ccccc2)c1` (centres undefined) [4-[2-(5-Amino-6-oxo-2-m-tolyl-6H-pyrimidin-1-yl)-acetylamino]-2,2-difluoro-3-oxo-5-phenyl-pentanoic acid benzylamide] it was 1.92 µM.
For `Cc1cccc(-c2ncc(N)c(=O)n2CC(=O)NC(Cc2ccccc2)C(=O)C(F)(F)C(=O)NCC(N)=O)c1` (centres undefined) [4-[2-(5-Amino-6-oxo-2-m-tolyl-6H-pyrimidin-1-yl)-acetylamino]-2,2-difluoro-3-oxo-5-phenyl-pentanoic acid carbamoylmethyl-amide], the Ki is 1.44 µM.
In the case of `Nc1cnc(-c2ccc(F)cc2)n(CC(=O)NC(Cc2ccccc2)C(=O)C(F)(F)C(=O)NCc2ccccc2)c1=O` (centres undefined) [4-{2-[5-Amino-2-(4-fluoro-phenyl)-6-oxo-6H-pyrimidin-1-yl]-acetylamino}-2,2-difluoro-3-oxo-5-phenyl-pentanoic acid benzylamide] it was 3.28 µM.

As a reminder, the Ki is a measure of affinity in units of concentration, obtained from inhibition or displacement.

The values are drawn from BindingDB's records for doi:10.1021/jm000497n (Welfide, 2001).
